In patent publication US9757456B2, “Super-saturating delivery vehicles for poorly water-soluble pharmaceutical and cosmetic active ingredients and suppression of crystallization of pharmaceutical active ingredients” (Nanologica AB, priority 2010, dated 2017):
≈ marks a conversion by molar mass, not a printed value.

How the values were obtained:
[1] = cited from earlier work
[2] = Dissolution / kinetic release of atazanavir from nanoporous silica in simulated intestine fluid (SIF); format: physicochemical
Procedure: In order to compare the concentrations of atazanavir crystallite and atazanavir in nanoporous silica, the UV absorbance scans of atazanavir in SIF with the time are shown in FIG. 1. […] The atazanavir super-saturating solutions from the nanoporous silica. […] Particularly, the super-saturating state produced from NFM-1 could be maintain for 24 hours, and the other two could maintain for 7 hours.
For nanoporous material NFM-1 loaded with ATV, the dissolution rate appears to decrease with increased particle concentration as a percentage of loaded amount. […] In the case of the highest particle concentration, a supersaturation state is maintained for 4 hours after which the dissolution decreases rapidly due to crystallization of the drug in the water bath in which the dissolution study is conducted.

[3] = cited from earlier work; remark: listed apart in the source
[4] = Solubility and release of Retinol / Retinol 50C in water; format: physicochemical; details: 37° C., 150 rpm, after 20 days release from a nanoporous material
Procedure: As a mesoporous silica material, AMS-6 was selected in this example, having an Ia3d cubic pore structures, and a small pore diameter (around 4 nm average). Prior to the loading, AMS-6 was thermally treated in order to increase the hydrophobic of the inner/outer surface. 10 grams of calcined AMS-6 were placed in an oven and heated at 600° C. during 12 hours. The selected active ingredient was Retinol 50C. Retinol 50C is a formulation comprising pure Retinol and an excipient namely Polisorbate 20 used as stabilizer. […] The percentage of each component in the formulation is 50% in weight.

Compound	log P [1]	solubility in SIF (in words) ([2]; UV absorbance over time)	solubility at 4 h ([2]; simulated intestine fluid (SIF), fassgf or other biorelevant, thermodynamic from solid, after 4 hours, higher concentration of NFM-1-ATV particles, read-out: maximum solubility) [µg/mL]	reduction in plasma concentration (Cmin) ([3]; co-administered with proton pump inhibitors) [%]	bioavailability ([3]; in vivo)	half-life ([3]; in vivo) [h]	concentration of Retinol dissolved in water [4] [ng/mL]
COC(=O)N[C@H](C(=O)N[C@@H](Cc1ccccc1)[C@@H](O)CN(Cc1ccc(-c2ccccn2)cc1)NC(=O)[C@@H](NC(=O)OC)C(C)(C)C)C(C)(C)C [Atazanavir]	5.20	very low	0.254 (≈ 0.36 µM)	≤ 78	60-68%	6.5	
CC1=C(/C=C/C(C)=C/C=C/C(C)=C/CO)C(C)(C)CCC1 [Retinol]							3400
